Test results published in US20230295157A1, “3-(1H-IMIDAZOL-2-YL)-2,3,8,8A-TETRAHYDROINDOLIZIN-5(1H)-ONE DERIVATIVES USEFUL AS FACTOR XIA INHIBITORS” (JANSSEN PHARMACEUTICA NV, priority 2020, published 2023).
Read-outs that look alike come from different tables or passages of the source.

What was measured:
[1] = target: human plasma kallikrein (Homo sapiens (Human), UniProt P03952); test: Kallikrein inhibition assay (FLINT) utilizing a quenched AMC peptide substrate; assay type: biochemical; conditions: 30 min preincubation, kinetic reads over 30 min, Z-Gly-Pro-Arg-AMC substrate 50 μM; read-out: Kallikrein Kin Inh IC50
Outline: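 Fluorogenic Z-Gly-Pro-Arg-AMC cleavage (50 μM substrate, 2 nM kallikrein, Tris pH 7.5, CaCl2, BSA, CHAPS, 2% DMSO) read kinetically at 340/440 nm for 30 min after 30-min compound pre-incubation. Compounds in 11-point 3-fold series from 1 μM; percent inhibition fitted to four-parameter equation for IC50.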

[2] = target: Factor XIa (Homo sapiens (Human), UniProt P03951); test: Factor XIa inhibition assay (FLINT) utilizing a fluorophore-quencher pair peptide substrate; assay type: biochemical; conditions: 30 min preincubation, kinetic reads over 30 min, read-out: FXIa Kin Inh IC50
Outline: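 FXIa ([…]) preincubated 30 min with compound (11-point 3-fold dilution, top 100 nM, 2% DMSO), then 15 μM quenched FXI Arg146-based peptide added; Tris pH 7.5, CaCl2, BSA, CHAPS. Fluorescence 485/520 nm read kinetically every 5 min over 30 min at RT; IC50 by 4-parameter fit.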

[3] = 5Fam-[…]-K5Tamra substrate 15 μM
[4] = 5Fam-KLTRAETV-K5Tamra substrate 15 μM

Sequence of human plasma kallikrein (P03952 391-638): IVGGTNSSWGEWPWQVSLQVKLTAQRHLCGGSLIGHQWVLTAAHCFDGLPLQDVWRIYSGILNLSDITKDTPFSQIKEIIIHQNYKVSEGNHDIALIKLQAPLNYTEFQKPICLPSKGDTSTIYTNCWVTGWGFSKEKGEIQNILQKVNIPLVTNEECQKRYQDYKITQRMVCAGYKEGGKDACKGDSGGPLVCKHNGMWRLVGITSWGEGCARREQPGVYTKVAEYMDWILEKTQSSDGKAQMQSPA
Sequence of human plasma kallikrein (P03952 20-390 partner): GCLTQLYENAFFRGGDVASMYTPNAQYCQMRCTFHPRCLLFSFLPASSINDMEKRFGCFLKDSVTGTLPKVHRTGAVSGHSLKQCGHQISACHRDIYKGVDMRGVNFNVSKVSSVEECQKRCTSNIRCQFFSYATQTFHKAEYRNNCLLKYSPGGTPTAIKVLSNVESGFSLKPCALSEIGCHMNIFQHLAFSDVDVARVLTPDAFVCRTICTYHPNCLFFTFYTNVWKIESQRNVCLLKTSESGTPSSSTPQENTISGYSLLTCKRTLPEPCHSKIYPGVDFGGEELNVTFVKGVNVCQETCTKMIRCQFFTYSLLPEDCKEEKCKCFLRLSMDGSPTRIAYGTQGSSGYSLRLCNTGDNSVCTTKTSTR
Sequence of Factor XIa (P03951 388-625): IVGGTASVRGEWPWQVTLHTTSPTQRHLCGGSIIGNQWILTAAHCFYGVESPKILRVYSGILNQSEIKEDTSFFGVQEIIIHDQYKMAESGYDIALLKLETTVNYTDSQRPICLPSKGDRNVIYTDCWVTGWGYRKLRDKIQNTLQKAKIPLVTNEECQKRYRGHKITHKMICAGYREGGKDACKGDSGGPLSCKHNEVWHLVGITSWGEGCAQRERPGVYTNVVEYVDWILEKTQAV
Sequence of Factor XIa (P03951 19-387 partner): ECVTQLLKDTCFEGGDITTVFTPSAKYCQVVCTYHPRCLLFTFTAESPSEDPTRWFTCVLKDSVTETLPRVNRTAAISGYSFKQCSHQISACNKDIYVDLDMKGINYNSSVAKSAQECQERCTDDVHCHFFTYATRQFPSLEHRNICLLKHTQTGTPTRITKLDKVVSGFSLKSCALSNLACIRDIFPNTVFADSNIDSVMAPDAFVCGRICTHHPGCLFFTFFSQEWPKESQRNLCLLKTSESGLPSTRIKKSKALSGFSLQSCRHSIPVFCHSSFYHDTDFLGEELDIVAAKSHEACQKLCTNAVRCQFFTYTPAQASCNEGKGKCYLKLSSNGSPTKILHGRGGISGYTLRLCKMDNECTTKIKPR

IC50 [1] [nM] | IC50 [2, 3] [nM] | IC50 [2, 4] [nM] | Structure (SMILES)
462 |  | > 100 | CNc1ncccc1-c1cnc([C@@H]2CCC3CC(c4c(-n5cnnn5)ccc(Cl)c4F)=CC(=O)N32)[nH]1 (stereo partly drawn) [Example 260, (3S)-7-[3-Chloro-2-fluoro-6-(tetrazol-1-yl)phenyl]-3-[4-[2-(methylamino)-3-pyridyl]-1H-imidazol-2-yl]-2,3,8,8a-tetrahydro-1H-indolizin-5-one]
12.4 |  | 1.4 | Nc1cc(-c2cnc([C@@H]3CC[C@@H]4CC(c5c(-n6cnnn6)ccc(Cl)c5F)=CC(=O)N43)[nH]2)ccn1 [Example 389, (3S,8aR)-3-(5-(2-aminopyridin-4-yl)-1H-imidazol-2-yl)-7-(3-chloro-2-fluoro-6-(1H-tetrazol-1-yl)phenyl)-2,3,8,8a-tetrahydroindolizin-5(1H)-one]
11.4 |  | 1.8 | COC(=O)Nc1nccc(-c2cnc([C@@H]3CC[C@@H]4CC(c5c(-n6cnnn6)ccc(Cl)c5F)=CC(=O)N43)[nH]2)c1F [Example 44, Methyl(4-(2-((3S,8aR)-7-(3-chloro-2-fluoro-6-(1H-tetrazol-1-yl)phenyl)-5-oxo-1,2,3,5,8,8a-hexahydroindolizin-3-yl)-1H-imidazol-5-yl)-3-fluoropyridin-2-yl)carbamate]
17.8 |  | 8.3 | NC(=O)c1nccc(-c2cnc([C@@H]3CC[C@@H]4CC(c5c(-n6cnnn6)ccc(Cl)c5F)=CC(=O)N43)[nH]2)c1F [Example 181, 4-(2-((3S,8aR)-7-(3-chloro-2-fluoro-6-(1H-tetrazol-1-yl)phenyl)-5-oxo-1,2,3,5,8,8a-hexahydroindolizin-3-yl)-1H-imidazol-5-yl)-3-fluoropicolinamide]

More lines, now with the values behind:

Structure (SMILES) | IC50 [1] [nM] | IC50 [2, 3] [nM] | IC50 [2, 4] [nM]
[2H]C([2H])([2H])C(=O)Nc1cnc(C(F)(F)F)cc1-c1cnc([C@@H]2CC[C@@H]3CC(c4c(-n5cnnn5)ccc(Cl)c4F)=CC(=O)N32)[nH]1 [Example 243, N-[4-[2-[(3S,8aR)-7-[3-Chloro-2-fluoro-6-(tetrazol-1-yl)phenyl]-5-oxo-2,3,8,8a-tetrahydro-1H-indolizin-3-yl]-1H-imidazol-5-yl]-6-(trifluoromethyl)-3-pyridyl]-2,2,2-trideuterio-acetamide] | 653 | 52 | 
O=C1C=C(c2cc(Cl)ccc2-n2cc(C(F)(F)F)nn2)C[C@H]2CC[C@@H](c3ncc(-c4ccc5[nH]c(=O)cnc5c4F)[nH]3)N12 (relative stereo) [Example 59, 6-(2-((3S*,8aR*)-7-(5-chloro-2-(4-(trifluoromethyl)-1H-1,2,3-triazol-1-yl)phenyl)-5-oxo-1,2,3,5,8,8a-hexahydroindolizin-3-yl)-1H-imidazol-5-yl)-5-fluoroquinoxalin-2(1H)-one] | 12 | 3.1 | 
[2H]c1cc(-c2[nH]c([C@@H]3CC[C@@H]4CC(c5c(-n6cnnn6)ccc(Cl)c5F)=CC(=O)N43)nc2[2H])c(F)nc1N [Example 145, (3S,8aR)-3-[5-(6-amino-5-deuterio-2-fluoro-3-pyridyl)-4-deuterio-1H-imidazol-2-yl]-7-[3-chloro-2-fluoro-6-(tetrazol-1-yl)phenyl]-2,3,8,8a-tetrahydro-1H-indolizin-5-one] | 7.7 |  | 0.6
O=C1C=C(c2c(-n3cnnn3)ccc(Cl)c2F)C[C@H]2CC[C@H](c3ncc(-c4c[nH]c5ccccc45)[nH]3)N12 (relative stereo) [Example 137, (3R*,8aR)-3-(5-(1H-indol-3-yl)-1H-imidazol-2-yl)-7-(3-chloro-2-fluoro-6-(1H-tetrazol-1-yl)phenyl)-2,3,8,8a-tetrahydroindolizin-5(1H)-one] | 7.7 | 4.6 | 
COc1ccccc1-c1c[nH]c([C@@H]2CCC3CC(c4c(-n5cnnn5)ccc(Cl)c4F)=CC(=O)N32)n1 (stereo partly drawn) [Example 317, (3S)-7-(3-Chloro-2-fluoro-6-(1H-tetrazol-1-yl)phenyl)-3-(4-(2-methoxyphenyl)-1H-imidazol-2-yl)-2,3,8,8a-tetrahydroindolizin-5(1H)-one] | 12.9 |  | 5.3
